Results: US5403862A, “Method for oral decorporation of metals” (priority 1992, dated 1995)

Tests used:
[1] = tested on: intestinal mucosa (duodenum and proximal jejunum); test: Intestinal tied-loop passage of 241Am complexes in situ; type: in vivo, rats; conditions: 241Am complex, 3 hours
Protocol: (§1) To test the ability of complexed chelons to move across membrane and cellular barriers, an assay has been developed that measures the intestinal passage of the chelons in closed duodenal segments in situ over a 3 hour period. […] Although there were differences in the rate at which some of these compounds moved through this tissue barrier, all were effective in Am removal in vivo as set forth in the following Table 1.
The ability of Am-citrate and ^241 Am-C12 TT to cross the intestinal mucosa in situ was measured using an intestinal tied-loop technique. Rats were anesthetized and a 18-20 cm segment of the duodenum and proximal jejunum was isolated and rinsed with cold saline. The most proximal portion of this segment was 1 cm distal to the pyloric junction. With the stability of the ^241 Am-complex established, known quantities of the corresponding complexes were introduced in vivo directly into the isolated and ligated segment. The animals remained anesthetized to allow for passage of the lipophilic compounds through the intestinal barrier into the body. After 3 hours, the rats were euthanized, the ligated section of the gut was excised and its lumen flushed with saline. Lumen wash, cleaned gut section, combined viscera, liver and the remaining carcass were counted separately. The 241Am found in the various parts was considered as representative of the distribution of the chelon.

[2] = Elimination of intravenously injected 241Am-complexed chelons by whole body counting and excreta; type: in vivo; conditions: intravenous
Protocol: In this example, animals were injected intravenously with ^241 Am-complexed C12 TT or K11 TT (K= terminally carboxylated alkyl series) and the rates of elimination from the body were determined. This was determined by whole body counting and counting of the excreta, both urine and feces. FIG. 2 illustrates the fraction of total body retention of the labeled chelating agents as a function of time after exposure. […] This example illustrates that modified polyaminocarboxylic acids have different organ targeting properties and different excretion pathways.

[3] = Weight gain and histology of rats during oral chelon feeding; type: in vivo, Sprague-Dawley rats; conditions: 10 days oral feeding; controls 61.1+8.8 g
Protocol: In vivo studies of the compounds of the present invention were performed. The effect of oral treatment on rats given an injection of 241Am was studied by a) comparing the reduction of an internal burden of 241Am from rats fed C12 TT or C22 TT with the natural biological retention of ^241 Am under condition of no chelation treatment; b) examination of histologic sections of tissues obtained from treated rats and c) by comparing the relative weight gain of treated rats and controls during the chelon feeding period. The effect of feeding C12 TT or C22 TT on the retention of ^241 Am was tested in 3 groups of 9 rats each. Sprague-Dawley rats (Simonson Labs., Gilroy, Cailf.), aged 60 days, were used in these studies. […]
The first group served as untreated controls, the second and third groups received 50 micro-mole of C12 TT or C22 TT/rat or about 200 micro-mole/kg of body weight, respectively, in their daily ration of 25 g of rodent chow. On days 1 and 7 after injection and on days 3, 6 and 10 of chelation treatment, the total body retention of ^241 Am was measured using a whole body counter. The animals were necropsied after 10 days of oral chelation therapy and the femora, liver, 1 kidney, viscera and carcass with integument were counted for ^241 Am content. […] Whole body retentions as a function of time were evaluated. Terminal organ retentions were measured after necropsy only. […]

[4] = Effect of 1 week oral feeding of TT-based chelons on total body and liver content of 241Am (Table 1); type: in vivo, rats; parameters: % Reduction in liver 241Am (Compared with controls): concentration or dose not given beside the values; conditions: for % Reduction in liver 241Am (Compared with controls): 1 week oral feeding, determined at necropsy; for % Reduction in total body 241Am (Before vs after chelon feeding): po, 168 h
Protocol: as §1
Effect of 1 week feeding of TT-based chelons on total
body and liver content of ^241 Am. Am was allowed to
incorporate for 1 week prior to oral chelon feeding.
Total body counts were taken before and after chelon feeding.
Liver values were determined at necropsy.

[5] = Reduction of 241Am whole body and organ burden by oral chelon administration (Table 2, Example 12); type: in vivo, Sprague-Dawley rats; conditions: 10 days oral treatment, 50 micro-mole/rat/day, vs controls; for % Reduction of 241Am, both femora / % Reduction of 241Am, carcass / % Reduction of 241Am, liver / % Reduction of 241Am, whole body: p <0.001 (C12TT, C22TT); for % Reduction of 241Am, one kidney: p >0.1 (C12TT, C22TT)
Protocol: ^a) Reduction = 100 - (% of initial activity in treated rats at
death/% of initial activity in controls at death); 9 Rats/Group; 10 Days
In vivo studies of the compounds of the present invention were performed. The effect of oral treatment on rats given an injection of 241Am was studied by a) comparing the reduction of an internal burden of 241Am from rats fed C12 TT or C22 TT with the natural biological retention of ^241 Am under condition of no chelation treatment; b) examination of histologic sections of tissues obtained from treated rats and c) by comparing the relative weight gain of treated rats and controls during the chelon feeding period. The effect of feeding C12 TT or C22 TT on the retention of ^241 Am was tested in 3 groups of 9 rats each. Sprague-Dawley rats (Simonson Labs., Gilroy, Cailf.), aged 60 days, were used in these studies. The animals were housed in groups of 3 or 4 until treatment was initiated. ^241 Am was given via the jugular vein as a single injection in citrate buffer of pH 3.5. One week later, rats were transferred to individual cages and feeding of the chelator was initiated. This delay allowed the nuclide to be incorporated firmly in the target organs, mostly liver and bone.
The first group served as untreated controls, the second and third groups received 50 micro-mole of C12 TT or C22 TT/rat or about 200 micro-mole/kg of body weight, respectively, in their daily ration of 25 g of rodent chow. On days 1 and 7 after injection and on days 3, 6 and 10 of chelation treatment, the total body retention of ^241 Am was measured using a whole body counter. The animals were necropsied after 10 days of oral chelation therapy and the femora, liver, 1 kidney, viscera and carcass with integument were counted for ^241 Am content. The other kidney and a sample of the small and large intestine were prepared for histological evaluation. Whole body retentions as a function of time were evaluated. Terminal organ retentions were measured after necropsy only. The reduction in whole body or organ retention due to oral chelation treatment was expressed as: [formula] both taken at the same time after treatment initiation. Results are shown in Table 2 above, which is incorporated into this Example by reference.

red cells = test: Crenation-hemolysis test in fresh canine blood; type: cell-based; conditions: Ca chelate, 10 and 20 mg, 37° C., 1 hour and 4 hours
Protocol: Toxicity studies were performed as indicators of early gross toxicity. […] Therefore, the crenation-hemolysis tests were repeated with the highly purified C12 -and C22 -PACAs. Two ml aliquots of fresh canine blood, drawn with a heparinized syringe, were incubated at 37° C. with an equal volume of a 0.1M Tris-buffer containing 10 and 20 mg, respectively, of the Ca chelate of the two compounds whose osmolarity had been adjusted to 270-300 mOsm. After 1 hour and 4 hours of incubation, respectively, blood smears were prepared and examined microscopically and cells were sedimented.

[6] = In vitro Pb binding and lipophilic character of C12 DMSA; type: physicochemical
Source text: As with the PACA's, the chain length could be changed and other functional groups could be added.

[7] = pH-titration at constant ionic strength; type: physicochemical; conditions: pH-titration in both directions
Protocol: For each compound, pH-titrations in both directions were carried out at constant ionic strength. All compounds were completely […] between pH 7.2 and 7.8 for the DT-series and 7.7 and 8.0 for the TT-series, pointing to the availability of all potential donor electrons derived from carboxyl oxygens--for complex or chelate formation similar to EDTA (pH 8.8) and DTPA (pH 6.7), the two model compounds known for their ability to chelate actinides and some other metals.

[8] = Solution behaviour / micelle formation of C22 TT; type: physicochemical
[9] = Reduction of 239Pu organ burden by oral administration of C22 TT (Table 5, Example 14); type: in vivo, Sprague-Dawley rats; conditions: 10 days in diet, starting 14 days after Pu, vs untreated
Protocol: Twelve young adult male rats (Sprague-Dawley rats from Simonsen Labs, Gilroy, Calif.) were given ^239 Pu by intravenous injection. Fourteen days later 6 of the animals were fed C22 TT in the diet while the other 6 animals were not fed the compound and served as controls. The delay in beginning the chelation treatment allowed the nuclide to be incorporated firmly in the target organs. After 10 days of feeding, the animals were sacrificed and the Pu content in 'select tissues was determined by liquid scintillation counting.
*100 × (1Pu in treated animals/Pu in untreated, control animals)

[10] = known chelators; cited from earlier work
intestinal tract = conditions: dogs; cited from earlier work
[11] = Distribution of 210Pb between water and chloroform after adding chelator; type: physicochemical
Protocol: In this example the ability of DMS(C8)2, from Example 17, and C12 DMS Et2, from Example 16 to move ^210 Pb between lipid and aqueous phases of chloroform and water mixture was measured. This would be an indicator of the ability of the chelator and the chelate-metal complex to penetrate lipophilic barriers.
^210 Pb was dissolved in water. C12 DMS Et2 and DMS(C8)2 were added and mixed for 10 minutes with chloroform. The solutions were mixed every several hours. The phases separated and the percentage of ^210 Pb found in the chloroform phase as a function of time was determined.

## CCCCCCCCCCCCN(CCN(CCN(CCN(CC(=O)O)CC(=O)O)CC(=O)O)CC(=O)O)CC(=O)O [C12 TT, 1-N-Dodecyl-triethylenetetramine pentaacetic acid]
[1]
  fraction found in carcass: 20%
  fraction found in liver: 3%
  fraction found in lumen and gut section: 73%
  fraction found in viscera: 4%
[2]
  excretion pathway: via the liver, through the bile into the feces
  rate of elimination from the body: less rapidly excreted
[3]
  weight gain: 55.7+11.1 g
[4]
  % Reduction in liver 241Am (Compared with controls): -57.1 ± 0.1%
  % Reduction in total body 241Am (Before vs after chelon feeding): -46.5 ± 4.0%
[5]
  % Reduction of 241Am, both femora: 17%
  % Reduction of 241Am, carcass: 20%
  % Reduction of 241Am, liver: 71%
  % Reduction of 241Am, whole body: 29%
  % Reduction of 241Am, one kidney: 24%
Red cells
  appearance of sera / hemolysis: All sera were slightly pink in appearance
  red cell crenation: No red cell crenation was observed

## CCCCCCCCCCCCSC(C(=O)O)C(S)C(=O)O (centres unmarked) [C12 DMSA, S-Dodecyl dimercaptosuccinic acid]
[6]
  ability to bind Pb in vitro: ability of this molecule to bind Pb is demonstrated in vitro
  partial lipophilic character: partial lipophilic character of this molecule has been established in vitro

## O=C(O)CN(CCN(CC(=O)O)CC(=O)O)CCN(CC(=O)O)CC(=O)O [DTPA, diethylenetriamine pentaacetic acid]
[7]
  pH of complete protonation: 6.7

## CCCCCCCCCCCCCCCCCCCCCCN(CCN(CCN(CCN(CC(=O)O)CC(=O)O)CC(=O)O)CC(=O)O)CC(=O)O [C22 TT, 1-N-Docosyl-triethylenetetramine pentaacetic acid]
[8]
  solution clarity / micelle formation: micelle formation
[3]
  weight gain: 70.2+11.6 g
[4]
  % Reduction in liver 241Am (Compared with controls): -47.9 ± 9.1%
  % Reduction in total body 241Am (Before vs after chelon feeding): -45.7 ± 6.1%
[5]
  % Reduction of 241Am, both femora: 32%
  % Reduction of 241Am, carcass: 36%
  % Reduction of 241Am, liver: 89%
  % Reduction of 241Am, whole body: 44%
  % Reduction of 241Am, one kidney: 26%
Red cells
  appearance of sera / hemolysis: All sera were slightly pink in appearance
  red cell crenation: No red cell crenation was observed
[9]; p <0.005
  % Reduction of 239Pu, liver: 71.1%
[9]; p <0.01
  % Reduction of 239Pu, spleen: 16.9%
[9]; p <0.375
  % Reduction of 239Pu, femora: 3.5%
  % Reduction of 239Pu, lumbar vertebral bodies: 8.4%

## O=C(O)CN(CCN(CC(=O)O)CC(=O)O)CC(=O)O [EDTA, ethylenediaminetetraacetic acid]
[10]
  effectiveness in removing lead: effective in removing lead in the blood, but is not effective in removing lead which has penetrated the cells
[7]
  pH of complete protonation: 8.8

## CCCCCCCCN(CCN(CCN(CCN(CC(=O)O)CC(=O)O)CC(=O)O)CC(=O)O)CC(=O)O [C8 TT]
[4]
  % Reduction in liver 241Am (Compared with controls): -30.1 ± 10.0%
  % Reduction in total body 241Am (Before vs after chelon feeding): -39.0 ± 6.3%

## O=C([O-])CN(CCN(CC(=O)[O-])CC(=O)[O-])CCN(CC(=O)[O-])CC(=O)[O-].[Ca+2].[Na+].[Na+].[Na+] [Ca DTPA]
Intestinal tract
  toxicity after frequent administration: destruction of the epithelial lining and related structures of the intestinal tract followed by death

## O=C(O)C(S)C(S)C(=O)O (centres unmarked) [DMSA, 2,3dimercaptosuccinic acid]
[10]
  effectiveness in removing lead: effective for reducing blood levels of Pb, but has limited effectiveness in removing lead burdens from other organs, such as liver, brain and bone

## CCCCCCCCOC(=O)C(S)C(S)C(=O)OCCCCCCCC (centres unmarked) [DMS(C8)2, dimercaptosuccinic acid dioctyl ester]
[11]
  Percentage of aqueous 210Pb found in chloroform phase, 15 min: 32.2%
  Percentage of aqueous 210Pb found in chloroform phase, 16 h: 41.9%

## CCCCCCCCCCCCSC(C(=O)OCC)C(S)C(=O)OCC (centres unmarked) [C12 DMS Et2, S-Dodecyl dimercaptosuccinic acid diethyl ester]
[11]
  Percentage of aqueous 210Pb found in chloroform phase, 15 min: 36.5%
  Percentage of aqueous 210Pb found in chloroform phase, 16 h: 62.2%
